Type in all cases: in vivo
Assay [1] has as its system Puccinia triticina. The assay can be described thus: Wheat brown rust (PUCCRT), disease control on wheat seedlings. Conditions: low volume application at 121.5 g/H. Put shortly:
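Compounds in acetone, diluted with nine volumes of water containing 110 ppm Triton X-100, sprayed to run-off on first-leaf Yuma wheat seedlings; track-spray tests used EC formulations with 0.1% Trycol 5941. Puccinia triticina spores applied before or after treatment. Overnight dark dew room at 22° C, 100% humidity, then greenhouse at 24° C.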

Assay [2] concerns Phakopsora pachyrhizi. The assay can be described thus: Asian soybean rust (PHAKPA), disease control on soybean seedlings. Conditions: High volume application at 25 ppm. In short, it runs like this:
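Two-week-old Williams 82 soybean seedlings were sprayed to run-off with compound in acetone/water (1:9) containing 0.011% Tween 20. Inoculation was 3 days before (curative) or 1 day after (protectant) treatment, followed by 24 h dark dew at 22 °C, 100% RH, then 23 °C; disease severity scored on sprayed leaves.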

Assay [3] relates to Zymoseptoria tritici. The assay can be described thus: Leaf blotch of wheat (SEPTTR), disease control on wheat seedlings. The following applies: low volume application at 121.5 g/H. In short, it runs like this:
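Z. tritici spores were inoculated onto wheat seedlings (Yuma, first leaf emerged) either before or after treatment. Treatment was an automated spray to run-off of acetone/Triton X-100 water solutions, or a track spray of EC formulations with 0.1% Trycol 5941. Plants were held in dew chambers at 20 °C and then a greenhouse at 20 °C. First-leaf severity (0–100%) was converted to percent control against untreated plants.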

The mark [4] stands for this setting: 24 h, 1 Day Protectant, read-out: PUCCRT disease control, 1DP, LV activity.
Setting [5] is: 72 h, 3 Day Curative, read-out: PUCCRT disease control, 3DC, LV activity.
[6] abbreviates: 24 h, 1 Day Protectant, read-out: PHAKPA 1DP disease control rating.
[7] abbreviates: 72 h, 3 Day Curative, read-out: PHAKPA 3DC disease control rating.
The mark [8] stands for this setting: 24 h, 1 Day Protectant, read-out: SEPTTR disease control, 1DP, LV activity.
[9] abbreviates: 72 h, 3 Day Curative, read-out: SEPTTR disease control, 3DC, LV activity.

Pest or weed control data for 17 compounds are collected here from patent publication US20180186742A1, “PICOLINAMIDES AS FUNGICIDES” (Dow AgroSciences LLC, priority 2017, published 2018).

Where two headings read alike, the source gives them in different places.

`COc1ccnc(C(=O)N[C@@H](C)C(=O)O[C@H](C)[C@H](c2ccc(F)cc2C)C2CCCCC2)c1OC(C)=O` [Compound 191]: the pest or weed control at 121.5 g/ha was less than 0% in assay [1] (setting [4]), less than 80% in assay [1] (setting [5]), less than 80% in assay [3] (setting [8]) and less than 80% in assay [3] (setting [9]). Besides, the values for the pest or weed control at 25 ppm in assay [2] (setting [6]) and in assay [2] (setting [7]) were less than 80% and less than 0%, respectively.
As to `COc1cc(F)ccc1[C@@H](C1CCCCC1)[C@H](C)OC(=O)[C@H](C)NC(=O)c1nccc(OC)c1OCOC(C)=O` [Compound 233], the pest or weed control at 121.5 g/ha in assay [1] (setting [4]) is less than 80%; in assay [1] (setting [5]), less than 80%; in assay [3] (setting [8]), more than 80%; in assay [3] (setting [9]), more than 80%. In addition, the pest or weed control at 25 ppm in assay [2] (setting [6]) and in assay [2] (setting [7]) was less than 80% throughout.
Turning to `COc1ccnc(C(=O)N[C@@H](C)C(=O)O[C@@H](C)[C@H](c2ccc(F)cc2C)C2CCCC2)c1OC(C)=O` [Compound 184], the pest or weed control at 121.5 g/ha in assay [1] (setting [4]), in assay [1] (setting [5]), in assay [3] (setting [8]) and in assay [3] (setting [9]) was more than 80% throughout. The pest or weed control at 25 ppm is more than 80% in assay [2] (setting [6]) and less than 80% in assay [2] (setting [7]).
Regarding `COc1ccnc(C(=O)NCC(=O)O[C@@H](C)[C@H](c2ccc(F)cc2C)C(C)C)c1OC(C)=O` [Compound 346], the pest or weed control at 121.5 g/ha in assay [1] (setting [4]) is more than 80%; in assay [1] (setting [5]), more than 80%; in assay [3] (setting [8]), less than 80%; in assay [3] (setting [9]), less than 80%. The values for the pest or weed control at 25 ppm in assay [2] (setting [6]) and in assay [2] (setting [7]) were more than 80% and less than 80%, respectively.
For the compound `COc1ccnc(C(=O)N[C@@H](C)C(=O)O[C@@H](C)[C@@H](c2ccc(C)cc2C)C2CCC2)c1OC(C)=O` [Compound 241], the pest or weed control at 121.5 g/ha in assay [1] (setting [4]) was less than 80%; in assay [1] (setting [5]) it was less than 80%; in assay [3] (setting [8]), less than 0%; in assay [3] (setting [9]) it was more than 80%. Also, the pest or weed control at 25 ppm in assay [2] (setting [6]) and in assay [2] (setting [7]) was less than 80% throughout.
Turning to `COc1cc(F)ccc1[C@H](C(C)C)[C@H](C)OC(=O)[C@H](C)NC(=O)c1nccc(OC)c1OCOC(C)=O` [Compound 237], the pest or weed control at 121.5 g/ha in assay [1] (setting [4]) was more than 80%; in assay [1] (setting [5]), more than 80%; in assay [3] (setting [8]), less than 80%; in assay [3] (setting [9]) it was less than 80%. Moreover, the pest or weed control at 25 ppm in assay [2] (setting [6]) and in assay [2] (setting [7]) was more than 80% throughout.
Consider `COCCC(=O)Oc1c(OC)ccnc1C(=O)N[C@@H](CC(C)C)C(=O)O[C@@H](C)[C@H](c1ccc(F)cc1C)C(C)C` [Compound 353], for which the pest or weed control at 121.5 g/ha in assay [1] (setting [4]), in assay [1] (setting [5]), in assay [3] (setting [8]) and in assay [3] (setting [9]) was less than 80% each time. Moreover, the pest or weed control at 25 ppm in assay [2] (setting [6]) was more than 80%; in assay [2] (setting [7]) it was less than 80%.
For `COc1ccnc(C(=O)N[C@@H](C)C(=O)O[C@@H](C)[C@@H](c2ccc(C)cc2C)C2CCCC2)c1OCOC(C)=O` [Compound 205], the pest or weed control at 121.5 g/ha is more than 80% in assay [1] (setting [4]), less than 0% in assay [1] (setting [5]), less than 80% in assay [3] (setting [8]) and less than 80% in assay [3] (setting [9]). Moreover, the pest or weed control at 25 ppm in assay [2] (setting [6]) is less than 80%; in assay [2] (setting [7]), less than 0%.
With `COc1ccnc(C(=O)N[C@@H](C)C(=O)O[C@@H](C)[C@@H](c2ccc(C)cc2C)C2CCCC2)c1OC(C)=O` [Compound 201], the pest or weed control at 121.5 g/ha in assay [1] (setting [4]) was more than 80%; in assay [1] (setting [5]) it was less than 80%; in assay [3] (setting [8]), less than 80%; in assay [3] (setting [9]) it was less than 80%. Moreover, the pest or weed control at 25 ppm in assay [2] (setting [6]) was less than 80%; in assay [2] (setting [7]), less than 0%.
For `COc1ccnc(C(=O)N[C@@H](C)C(=O)O[C@@H](C)[C@@H](c2ccc(F)cc2C)C2CCCC2)c1OCOC(C)=O` [Compound 193], the pest or weed control at 121.5 g/ha in assay [1] (setting [4]) was less than 80%; in assay [1] (setting [5]), less than 80%; in assay [3] (setting [8]), less than 0%; in assay [3] (setting [9]), less than 80%. Moreover, the pest or weed control at 25 ppm in assay [2] (setting [6]) and in assay [2] (setting [7]) was less than 80% throughout.
With `COc1ccnc(C(=O)N[C@@H](C)C(=O)O[C@@H](C)[C@H](c2cc(C)ccc2C)C(C)C)c1OC(C)=O` [Compound 358], the pest or weed control at 121.5 g/ha in assay [1] (setting [4]) was more than 80%; in assay [1] (setting [5]), less than 80%; in assay [3] (setting [8]), less than 80%; in assay [3] (setting [9]) it was less than 80%. The pest or weed control at 25 ppm in assay [2] (setting [6]) was more than 80%; in assay [2] (setting [7]), less than 80%.
As for `COc1cc(F)ccc1[C@H](C1CCC1)[C@H](C)OC(=O)[C@H](C)NC(=O)c1nccc(OC)c1OCOC(C)=O` [Compound 236], the pest or weed control at 121.5 g/ha in assay [1] (setting [4]), in assay [1] (setting [5]), in assay [3] (setting [8]) and in assay [3] (setting [9]) was less than 80% in each case. The pest or weed control at 25 ppm in assay [2] (setting [6]) is more than 80%; in assay [2] (setting [7]), less than 80%.
As to `COc1ccnc(C(=O)N[C@@H](CC(C)C)C(=O)O[C@@H](C)[C@H](c2ccc(F)cc2C)C(C)C)c1OC(C)=O` [Compound 349], the pest or weed control at 121.5 g/ha in assay [1] (setting [4]) is more than 80%; in assay [1] (setting [5]), less than 80%; in assay [3] (setting [8]), less than 80%; in assay [3] (setting [9]), less than 80%. For the same compound, the pest or weed control at 25 ppm in assay [2] (setting [6]) was more than 80%; in assay [2] (setting [7]) it was less than 80%.
In the case of `COc1ccnc(C(=O)N[C@@H](C)C(=O)O[C@@H](C)[C@H](c2ccc(F)cc2C)C2CCCCC2)c1OC(C)=O` [Compound 185], the pest or weed control at 121.5 g/ha in assay [1] (setting [4]) was more than 80%; in assay [1] (setting [5]), less than 80%; in assay [3] (setting [8]), more than 80%; in assay [3] (setting [9]), more than 80%. For the same compound, the pest or weed control at 25 ppm in assay [2] (setting [6]) was more than 80%; in assay [2] (setting [7]), less than 80%.
With `COc1ccnc2c(=O)n([C@@H](C)C(=O)O[C@@H](C)[C@@H](c3ccc(C)cc3C)C3CCCCC3)c(=O)oc12` [Compound 210], the pest or weed control at 121.5 g/ha in assay [1] (setting [4]) is less than 80%; in assay [1] (setting [5]), less than 0%; in assay [3] (setting [8]), more than 80%; in assay [3] (setting [9]), less than 80%. Besides, the pest or weed control at 25 ppm in assay [2] (setting [6]) and in assay [2] (setting [7]) was less than 80% in each case.
On to `COc1ccnc(C(=O)N[C@@H](C)C(=O)O[C@H](C)[C@H](c2ccc(F)cc2C)C2CCCCC2)c1OCOC(C)=O` [Compound 199], for which the pest or weed control at 121.5 g/ha in assay [1] (setting [4]) is less than 80%; in assay [1] (setting [5]), less than 0%; in assay [3] (setting [8]), more than 80%; in assay [3] (setting [9]), less than 80%. Moreover, the pest or weed control at 25 ppm in assay [2] (setting [6]) and in assay [2] (setting [7]) was less than 80% each time.
As to `CC[C@H](C)[C@H](NC(=O)c1nccc(OC)c1OC(C)=O)C(=O)O[C@@H](C)[C@H](c1ccc(F)cc1C)C(C)C` [Compound 348], the pest or weed control at 121.5 g/ha in assay [1] (setting [4]) is more than 80%; in assay [1] (setting [5]), less than 80%; in assay [3] (setting [8]), less than 80%; in assay [3] (setting [9]) it was less than 80%. Also, the results for the pest or weed control at 25 ppm in assay [2] (setting [6]) and in assay [2] (setting [7]) were more than 80% and less than 80%, respectively.
